Data set [1] concerns PE-constricted aortic rings. Briefly: Vasorelaxant effects on isolated PE-constricted aortic rings. Also on record: species or system SD rats. As to conditions: 10^–6 M PE, n = 6. The method, then:
SD rats were anesthetized by exposure to ether, and the thoracic aorta was removed and immersed in Krebs-Henseleit (K-H) buffer ([Lee et al., 2013]) at 4°C. The connective tissues and fats around the aorta were carefully removed under the microscopes, and the blood was flushed. The aorta ring was cut into four sections approximately 3 mm long and suspended in organ chambers containing K-H buffer. The endothelium was also removed by gently rubbing the lumen of the vessel with a cotton swab. The aortic rings were placed in a 5 ml organ chambers of DMT multiwire myograph system (620M, Danish Myo Technology, Denmark) and were filled with K-H buffer aerated with 95% O2 and 5% CO2 at 37°C. The aortic rings were mounted on hooks connected to a tension transducer and a displacement device.
The initial vessel tension was slowly adjusted to 15 mN and maintained balanced for 60 min. The buffer was renewed once every 15 min. After equilibration, the vessel viability was pre-constricted by exposing the aortic rings to 60 mM KCl for 10 min ([Ding et al., 2019]). Then, the K-H buffer was continuously renewed to elute and restore the initial tension of the vascular ring to assay the vascular activity. The pre-treated operation was repeated two times, where the constriction amplitude after each KCl stimulation to reach the previous constriction amplitude was taken as the criterion, before the experiment continued. Subsequently, 10^–6 M PE was added to contract the blood vessel. After the constriction was stable, different concentrations of Ach (10^−9–10^–5 M) were used to dilate the vessels. Then, the vasorelaxation degree could be calculated with different Ach concentrations, as the following equation: Vasorelaxation degree (%)=Maxium constriction tension induced by PE−Minium diastolic tension induced by Ach/Maxium constriction tension induced by PE−Resting tension×100% (10) When the vasorelaxation degree corresponding to Ach (10^–5 M) is greater than 80%, the vascular endothelium is considered intact and functional. The endothelium is considered to be removed with a vasorelaxation degree of less than 20% ([Lee et al., 2013]). Endothelium-intact and endothelium-denuded aortic rings from the same aorta were tested.
After equilibration, the endothelium-intact and the endothelium-denuded aortic rings were pre-constricted with 10^–6 M PE in the K-H buffer system.
After equilibration, the endothelium-intact aortic rings were pre-constricted with 10^–6 M PE in the K-H buffer system. […] Then, the corresponding vasoconstrictive responses were examined and recorded.
In the vasorelaxant effects investigations, all the data are presented as mean ± SEM. Statistical analysis was performed using two-way ANOVA followed by Fisher’s least significant difference (LSD) test. Values at p < 0.05 were considered statistically significant.

A further data set can be described thus: in vitro. As to conditions: microsomes. The method, then: Then, this incubation plate containing mixed solution and NADPH regeneration system was agitated on a plate shaker at 100 rpm and pre-incubated at 37°C for 5 min. Subsequently, 300 μL of precooled quenching solution was added to each well of another deep-well plate (quench plate), which was cooled on ice. The solution in the incubation plate was transferred into the well of the quench plate as the samples in 0 min before it was mixed with another 20 µL of NADPH regeneration solution in the wells.
The incubation plate was incubated at 37°C for 0, 10, 30, and 90 min. At each time point, 100 μL of the supernatant in the incubation plate was removed from each well, quenched immediately, transferred to the wells of the ice-cold quench plate, and vortexed for 5 min. Additionally, an equal volume of pre-warmed fresh regeneration solution was added to the incubation plate for compensation after every withdrawal. […] Each test was operated in duplicate. The determination conditions of LC-MS/MS are shown in Support Materials (Supplementary Table S4).
The in vitro T1/2 was determined by converting the analyte/IS peak area ratios to percentage of drug remaining using the initial peak (t = 0 min) area ratio values as 100%.

SMILES strings stand for the structures.

For orientation: half-life means how long it takes for the measured level to halve. One may read the microsomal CLint as the capacity of the preparation to metabolise the compound, expressed as a volume cleared per time. Higher therefore signals rapid turnover. Regarding `COc1cc(C2OCC3C(c4ccc(OC5OC(CO)C(O)C(O)C5O)c(OC)c4)OCC23)ccc1OC1OC(CO)C(O)C(O)C1O` (single isomer, unassigned; (+)) [PDG, (+)-1-pinoresinol 4,4′-di-O-β-D-glucopyranoside], the “vasorelaxant effect on PE-constricted aortic rings” value in data set [1] (increasing concentration 25–200 μM) was “concentration-dependent vasorelaxation”. Also, the “vasorelaxation degree, endothelium-denuded versus endothelium-intact group” value in data set [1] (PINL difference at 50–100 μM) is “not statistically significant”. In the data set “in vitro” (human), this compound showed a half-life of 16.7 h, a half-life at 5 µM of 16.7 h and a microsomal CLint of 1.4 µL/min/mg. In “in vitro” (rat), this compound gave a half-life of 17.3 h, a half-life at 5 µM of 17.3 h and a microsomal CLint of 1.3 µL/min/mg.

For the origin of these results see article PMC8381248 (Frontiers in Pharmacology, 2021).
